Laboratory results as given in ChEMBL document CHEMBL4477196, “Rhodocomatulin-Type Anthraquinones from the Australian Marine Invertebrates Clathria hirsuta and Comatula rotalaria” (2016).

Tested on: MCF7
Experiment: Growth inhibition of human MCF7 cells at 10 uM incubated for 72 hrs by SRB assay
Assay type: functional
Details: MCF7, 72 h, read-out: GI

CCCC(=O)c1c(O)cc(O)c2c1C(=O)c1cc(OC)cc(OC)c1C2=O
inhibition of growth at 10 µM: 9%
